≈ marks a conversion by molar mass, not a printed value. Where “and” joins values, the source holds several entries; their conditions need not be identical. Equal entries are not always repeated.
Experiments:
Rattus norvegicus [1] = details: oral
Rattus norvegicus [2] = details: for LD50 / LC50: acute
[3] = short-term, duration: 28 days, gavage, F, Sprague-Dawley, Deaths + Clinical Observation: Locomotor activity decrease, Salivation + Body Weight Changes: decrease, Gain decrease + Food Consumption: …
[4] = short-term, duration: 28 days, gavage, M, Sprague-Dawley, Deaths + Clinical Observation: Locomotor activity decrease, Salivation + Body Weight Changes: decrease, Gain decrease + Food Consumption: …
[5] = short-term, duration: 28 days, gavage, F, Sprague-Dawley, Clinical Observation: Salivation + Hematology: Hgb decrease, Hct decrease + Blood Chemistry: Bil increase, Bil increase(trend)gamma-GTP …
[6] = short-term, duration: 28 days, gavage, M, Sprague-Dawley, Clinical Observation: Salivation + Hematology: Hgb decrease, Hct decrease + Blood Chemistry: Bil increase, Bil increase(trend)gamma-GTP …
[7] = short-term, duration: 28 days, gavage, M/F, CD(SD)ICS BR, Clinical Observation: Fur-staining Hypoactivity(one animal)Hunched posture(one animal)Weight loss(one animal)Pallor(one animal) + Urinalysis…
[8] = subchronic, gavage, M, Sprague-Dawley, Clinical Observation: Soft stool + Urinalysis: pH decrease(trend)Phosphate crystal (grade, frequency) decrease + Histopathology: Stomach-…
[9] = reproduction developmental, duration: 83 days, oral, gavage, Sprague-Dawley
[10] = reproduction developmental, duration: 24 weeks, inhalation, generation: F0
[11] = reproduction developmental, duration: 24 weeks, inhalation, generation: F1
[12] = reproduction developmental, duration: 10 days, oral, gavage, F
[13] = short-term, duration: 12 days, inhalation, F, Fischer 344
[14] = short-term, duration: 12 days, inhalation, M, Fischer 344
[15] = short-term, duration: 14 days, oral, gavage, F, Crj:CD(SD)
[16] = short-term, duration: 14 days, oral, gavage, M, Crj:CD(SD)
[17] = subchronic, duration: 13 weeks, inhalation, F, Fischer 344
[18] = subchronic, duration: 13 weeks, inhalation, M, Fischer 344

**Q.** For `Cc1[nH]n(-c2ccccc2)c(=O)c1N=Nc1ccc(-c2ccc(N=Nc3c(C)[nH]n(-c4ccccc4)c3=O)c(Cl)c2)cc1Cl` [C.I. Pigment Orange 13], which NOEL (Rattus norvegicus [1]; subchronic, gavage, Sprague-Dawley) is on record?
**A.** The NOEL was 1000 mg/kg-day.

**Q.** Which NOAEL (Rattus norvegicus [1]; subchronic, duration: 90 days, diet, M/F, Wistar, Body Weight Changes: Weight gain decrease + Food Consumption: decrease + Urinalysis: Crystals increase + Hematology: RBC decrease, HGB …) does the source give for `CCCCCCC[CH2][Sn]([Cl])([Cl])[CH2]CCCCCCC` [Dichloro(dioctyl)stannane] here?
**A.** The NOAEL was > 0.96 mg/kg-day.

**Q.** With `CC(C)(C)c1cc2nc(-c3ccc(N)cc3)nn2[nH]1` as the compound, how does the NOEL (Rattus norvegicus [1]; short-term, duration: 28 days, gavage, M/F, Deaths + Clinical Observation: Locomotor activity decrease, Piloerection + Body Weight Changes: Gain decrease + Hematology: RBC decrease, …) read?
**A.** The NOEL was 2 mg/kg-day.

**Q.** With `CCc1ccccc1N` [2-Ethylaniline] as the compound, how does the NOEL (Rattus norvegicus [1]; subchronic, duration: 42 days, gavage, M, CD(SD), Hematology: RBC decrease, HGB decrease, MCV increase, MCH increase, MCHC decrease, RET increase + Blood Chemistry: Alb increase A/G …) read?
**A.** The NOEL was 3 mg/kg-day.

**Q.** Which results are given for `NS(=O)(=O)c1ccccc1` [Benzenesulfonamide]?
**A.** LOAEL (Rattus norvegicus [1]; [3]): 30 mg/kg-day; LOEL (Rattus norvegicus [1]; [3]): 30 mg/kg-day; NOAEL (Rattus norvegicus [1]; [3]): 6 mg/kg-day; NOEL (Rattus norvegicus [1]; [3]): 6 mg/kg-day; LOAEL (Rattus norvegicus [1]; [4]): 30 mg/kg-day; LOEL (Rattus norvegicus [1]; [4]): 30 mg/kg-day; NOAEL (Rattus norvegicus [1]; [4]): 6 mg/kg-day; NOEL (Rattus norvegicus [1]; [4]): 6 mg/kg-day

**Q.** Which LD50 (Rattus norvegicus [2]; oral) does the source give for `CC12CCCCC1C(=O)OC2=O` (configuration not stated) [Methylhexahydrophthalic anhydride] here?
**A.** Its LD50 is 3300 mg/kg.

**Q.** Which LOEL (Rattus norvegicus [1]; [5]) does the source give for `CCC1CCCCC1` [Ethylcyclohexane] here?
**A.** Its LOEL is 200 mg/kg-day.

**Q.** What about the NOEL (Rattus norvegicus [1]; [5]) of the same compound?
**A.** Its NOEL is 40 mg/kg-day.

**Q.** What about the LOEL (Rattus norvegicus [1]; [6]) of the same compound?
**A.** Its LOEL is 200 mg/kg-day.

**Q.** And the NOEL (Rattus norvegicus [1]; [6])?
**A.** Its NOEL is 40 mg/kg-day.

**Q.** How did the NOAEL (Rattus norvegicus [1]; [7]) turn out when `C=CC(C)(O)CCCC(C)CCCC(C)CCCC(C)C` (configuration not stated) [Isophytol] was run?
**A.** The NOAEL was 500 mg/kg-day.

**Q.** What about the NOEL (Rattus norvegicus [1]; [7]) of the same compound?
**A.** The NOEL was 250 mg/kg-day.

**Q.** For `O=C(O)c1cc(C(=O)O)c(C(=O)O)cc1C(=O)O` [Pyromellitic acid], which LOEL (Rattus norvegicus [1]; [8]) is on record?
**A.** The LOEL was 100 mg/kg-day.

**Q.** And the NOEL (Rattus norvegicus [1]; [8])?
**A.** The NOEL was < 100 mg/kg-day.

**Q.** For `O=C(O)c1cccc(C(=O)O)c1` [1,3-Benzenedicarboxylic acid], which NOAEL (Rattus norvegicus [2]; developmental, duration: 10 days, Inhalation, Sprague-Dawley) is on record?
**A.** Its NOAEL is > 10 mg/m3.

**Q.** `O=P(CCCl)(OCCCl)OCCCl` [Bis(2-chloroethyl) 2-chloroethylphosphonate] was tested. Which LD50 (Rattus norvegicus [2]; oral, gavage, Sprague-Dawley) did it give?
**A.** The LD50 was 580 mg/kg and 810 mg/kg.

**Q.** What about the NOAEL (Rattus norvegicus [2]; developmental, duration: 14 days, oral, gavage, Sprague-Dawley) of the same compound?
**A.** The NOAEL was ≤ 600 mg/kg-day.

**Q.** What about the NOAEL (Rattus norvegicus [2]; reproduction developmental, duration: 14 days, oral, gavage, F, Sprague-Dawley) of the same compound?
**A.** The NOAEL was 400 mg/kg-day.

**Q.** `CC(=O)O.CC(C)CCCCCCCOCCCN` [1-Propanamine, 3-(isodecyloxy)-, acetate] was tested. Which LD50 (Rattus norvegicus [2]; oral, gavage, Sprague-Dawley) did it give?
**A.** Its LD50 is 1030 mg/kg and 1460 mg/kg and 1220 mg/kg.

**Q.** What does the source list for `CCCCCCCCC(=O)Oc1ccccc1S(=O)(=O)[O-].[Na+]` [Sodium (nonanoyloxy)benzenesulfonate]?
**A.** LOAEC (Rattus norvegicus [2]; [9]): 100 mg/kg-day; NOAEL (Rattus norvegicus [2]; [9]): 1000 mg/kg-day

**Q.** For `CCCCCCCCCCOC1CCS(=O)(=O)C1` (configuration not stated) [Thiophene, 3-(decyloxy)tetrahydro-, 1,1-dioxide], which NOAEL (Rattus norvegicus [2]; short-term, duration: 28 days, oral, gavage, M, Sprague-Dawley) is on record?
**A.** The NOAEL was 100 mg/kg-day.

**Q.** How did the LD50 (Rattus norvegicus [2]; oral) turn out when `O=[N+]([O-])c1ccc(C=Cc2ccc([N+](=O)[O-])cc2S(=O)(=O)[O-])c(S(=O)(=O)[O-])c1.[Na+].[Na+]` [Disodium 4,4'-dinitro-2,2'-stilbenedisulfonate] was run?
**A.** Its LD50 is > 16000 mg/kg.

**Q.** Which results are given for `C=C(C)CC` [2-Methylbutene]?
**A.** LC50 (Rattus norvegicus [2]; inhalation, Wistar): > 61000 ppm; NOAEL (Rattus norvegicus [2]; reproduction developmental, inhalation, Sprague-Dawley): 7000 ppm

**Q.** How did the LD50 (Rattus norvegicus [2]; oral, Sprague-Dawley) turn out when `CC(C)(N)C#N` [2-Amino-2-methylpropionitrile] was run?
**A.** Its LD50 is ≥ 10 mg/kg and ≤ 30 mg/kg.

**Q.** And the NOAEL (Rattus norvegicus [2]; short-term, duration: 2 weeks, inhalation, M, Sprague-Dawley)?
**A.** The NOAEL was 75.7 mg/m3.

**Q.** Which results are given for `CC(C)(C)c1cccc(C(C)(C)C)c1O` [2,6-Di-tert-butylphenol]?
**A.** LD50 (Rattus norvegicus [2]; oral, gavage): 6290 mg/kg; LD50 (Rattus norvegicus [2]; oral, gavage, Sprague-Dawley): > 5000 mg/kg; NOAEL (Rattus norvegicus [2]; developmental, oral, gavage, Wistar): > 750 mg/kg-day; NOAEL (Rattus norvegicus [2]; reproduction developmental, oral, gavage, Wistar): 150 mg/kg-day; NOAEL (Rattus norvegicus [2]; short-term, duration: 28 days, oral, gavage, Wistar): 15 mg/kg-day

**Q.** With `N#Cc1nc(Cl)c(Cl)c(Cl)c1Cl` [3,4,5,6-Tetrachloropyridine-2-carbonitrile] as the compound, how does the LD50 (Rattus norvegicus [2]; oral, gavage) read?
**A.** Its LD50 is ≥ 1000 mg/kg and ≤ 2000 mg/kg.

**Q.** With `CCCCCCCCCCCCCOC(=O)CCSCCC(=O)OCCCCCCCCCCCCC` [Di(tridecyl) thiodipropionate] as the compound, how does the LD50 (Rattus norvegicus [2]; oral) read?
**A.** The LD50 was > 2000 mg/kg.

**Q.** Which LD50 (Rattus norvegicus [2]; oral, gavage) does the source give for `OP(O)c1ccccc1` [Phenylphosphinic acid] here?
**A.** The LD50 was 1470 mg/kg and 1710 mg/kg.

**Q.** What about the NOAEL (Rattus norvegicus [2]; subchronic, duration: 31 days, oral, diet) of the same compound?
**A.** The NOAEL was 960 mg/kg-day.

**Q.** Which results are given for `CCCCCCC([O-])CCCCCCCCCCC(=O)OC.[Li+]` (configuration not stated) [Lithium methyl 12-hydroxystearate]?
**A.** NOAEL (Rattus norvegicus [2]; reproduction developmental, duration: 0 days, dermal, non-occlusive, F, Sprague-Dawley): > 2000 mg/kg-day; NOAEL (Rattus norvegicus [2]; reproduction developmental, duration: 10 weeks, dermal, non-occlusive, M, Fischer 344): < 500 mg/kg-day; NOAEL (Rattus norvegicus [2]; subchronic, duration: 13 weeks, dermal, non-occlusive, F, Sprague-Dawley): 500 mg/kg-day

**Q.** For `C1COCO1` [1,3-Dioxolane], which LC50 (Rattus norvegicus [2]; inhalation, Crl:CD1) is on record?
**A.** Its LC50 is 68.4 µg/mL (≈ 923 µM).

**Q.** And the LD50 (Rattus norvegicus [2]; oral, gavage, Sprague-Dawley)?
**A.** Its LD50 is 5200 mg/kg.

**Q.** What about the LOAEL (Rattus norvegicus [2]; developmental, duration: 10 days, oral, gavage) of the same compound?
**A.** Its LOAEL is 1000 mg/kg-day.

**Q.** What about the LOAEL (Rattus norvegicus [2]; [10]) of the same compound?
**A.** The LOAEL was > 379 mg/m3.

**Q.** What about the NOAEL (Rattus norvegicus [2]; [10]) of the same compound?
**A.** Its NOAEL is 379 mg/m3.

**Q.** What about the LOAEL (Rattus norvegicus [2]; [11]) of the same compound?
**A.** Its LOAEL is > 379 mg/m3.

**Q.** And the NOAEL (Rattus norvegicus [2]; [11])?
**A.** The NOAEL was 379 mg/m3.

**Q.** What about the LOAEL (Rattus norvegicus [2]; [12]) of the same compound?
**A.** Its LOAEL is 500 mg/kg-day.

**Q.** What about the NOAEL (Rattus norvegicus [2]; [12]) of the same compound?
**A.** The NOAEL was 250 mg/kg-day.

**Q.** And the LOAEL (Rattus norvegicus [2]; [13])?
**A.** The LOAEL was 7030 mg/m3.

**Q.** What about the NOAEL (Rattus norvegicus [2]; [13]) of the same compound?
**A.** Its NOAEL is 1560 mg/m3.

**Q.** And the LOAEL (Rattus norvegicus [2]; [14])?
**A.** Its LOAEL is 7030 mg/m3.

**Q.** And the NOAEL (Rattus norvegicus [2]; [14])?
**A.** Its NOAEL is 1560 mg/m3.

**Q.** What about the LOAEL (Rattus norvegicus [2]; [15]) of the same compound?
**A.** Its LOAEL is 250 mg/kg-day.

**Q.** And the NOAEL (Rattus norvegicus [2]; [15])?
**A.** The NOAEL was 75 mg/kg-day.

**Q.** And the LOAEL (Rattus norvegicus [2]; [16])?
**A.** Its LOAEL is 250 mg/kg-day.

**Q.** What about the NOAEL (Rattus norvegicus [2]; [16]) of the same compound?
**A.** Its NOAEL is 75 mg/kg-day.

**Q.** And the LOAEL (Rattus norvegicus [2]; [17])?
**A.** The LOAEL was 3030 mg/m3.

**Q.** What about the NOAEL (Rattus norvegicus [2]; [17]) of the same compound?
**A.** The NOAEL was 903 mg/m3.

**Q.** What about the LOAEL (Rattus norvegicus [2]; [18]) of the same compound?
**A.** Its LOAEL is 9120 mg/m3.

**Q.** And the NOAEL (Rattus norvegicus [2]; [18])?
**A.** The NOAEL was 3030 mg/m3.

Source: EPA's ToxValDB 9.5
